Results as given in patent US4857537A, “Novel thiazolidine derivatives” (Ono Pharmaceutical Co., Ltd., priority 1987, dated 1989).
Square brackets hold non-standard residues; d marks the D form. Peptide text beside a SMILES is read from it. * marks the point of attachment. ξ: configuration not given here. Hydrocinnamoyl = O=C(CCc1ccccc1)*; Thz = O=C(O)[C@@H]1CSCN1; Cbz = O=C(OCc1ccccc1)*; ξPip = O=C(O)C1CCCCN1; CH2Cl = ClC*

Tested on: prolyl endopeptidase
Test: not given
Details: See J. Neurochem., 41, 69(1983); cited from earlier work

For `O=C(NCC(=O)N1CCC[C@H]1C(=O)CCl)OCc1ccccc1` [N-benzyloxycarbonyl-glycyl-L-prolyl-chloromethane] (Cbz-Gly-Pro-CH2Cl), the “inhibition of prolyl endopeptidase (in words)” value is given as “strongly inhibit”.

Molecular target: T1, prolyl endopeptidase (Bos taurus, UniProt Q9XTA2)
T1 construct: purified from bovine brain; from tissue; host or cells: bovine brain
Test: Prolyl endopeptidase inhibitory activity in vitro
Assay type: biochemical, bovine
Details: not given
Experimental: Inhibitory activity of prolyl endopeptidase in vitro was measured by the following test system.
A mixed solution of 20 mM tris-HCl buffer (pH 7.5; 935 μl; containing 10 mM EDTA and 10 mM mercaptoethanol), a solution of a compound of the present invention in DMSO (10 μl) and a solution of prolyl endopeptidase which was purified from bovine brain (0.13 unit; prepared by the method described in J. Biochem., 94, 1179 (1983)) in tris-HCl buffer (15 μl) was preincubated for 15 mins at 37° C.
To the solution, 5 mM of N-benzyloxycarbonyl-glycyl-prolyl-p-nitroanilide (40 μl) in a mixture of 40% dioxane--60% water was added. Ths solution was incubated for 1 min at the same temperature.
Optical absorption (a1) at 405 nm of the solution, and optical absorption (a2) at 405 nm of the solution after more 30 mins' incubation at 37° C. were measured.
Optical absorptions (b1 and b2) of the solutions using DMSO instead of the solution of the compound of the present invention were also measured.
Inhibitory ratio was calculated by the following expression and IC50 (required concentration for 50% inhibition) was obtained (See Protein, Nucleic acid and Enzyme 25(6), 513, 1980.). [formula]

T1 sequence (Q9XTA2 whole entry): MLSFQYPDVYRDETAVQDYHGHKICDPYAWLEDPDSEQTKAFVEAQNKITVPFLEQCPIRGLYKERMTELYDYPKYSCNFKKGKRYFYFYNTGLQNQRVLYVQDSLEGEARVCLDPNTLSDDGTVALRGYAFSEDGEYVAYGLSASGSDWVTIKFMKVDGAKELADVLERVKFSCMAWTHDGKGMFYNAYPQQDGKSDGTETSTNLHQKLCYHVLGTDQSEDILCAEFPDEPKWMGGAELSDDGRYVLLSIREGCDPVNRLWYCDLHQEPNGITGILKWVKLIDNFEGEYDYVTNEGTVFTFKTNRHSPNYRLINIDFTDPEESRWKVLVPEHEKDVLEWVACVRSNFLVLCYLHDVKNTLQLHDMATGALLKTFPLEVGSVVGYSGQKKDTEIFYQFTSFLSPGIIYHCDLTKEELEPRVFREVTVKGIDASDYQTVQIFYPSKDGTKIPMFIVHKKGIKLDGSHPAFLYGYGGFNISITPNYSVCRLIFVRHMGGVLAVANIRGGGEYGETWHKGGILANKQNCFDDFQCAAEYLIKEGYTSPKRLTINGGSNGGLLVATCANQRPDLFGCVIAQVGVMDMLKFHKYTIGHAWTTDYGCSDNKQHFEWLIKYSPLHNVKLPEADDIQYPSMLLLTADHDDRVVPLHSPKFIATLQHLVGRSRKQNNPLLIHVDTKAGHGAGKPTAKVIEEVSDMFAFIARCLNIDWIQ

Compound `O=C[C@@H]1CSCN1C(=O)/C=C/c1ccc(CCCCCc2ccccc2)cc1` [1 (g), (4R)3-[4-(5-phenylpentyl)cinnamoyl]thiazolidin-4-al] has an IC50 of 4800 nM.

Same assay, conditions: in vitro; purified from bovine brain; pH 7.5, 37° C.; substrate N-benzyloxycarbonyl-glycyl-prolyl-p-nitroanilide; 405 nm; read-out: Concentration for 50% inhibition IC50

Compared with `O=C[C@@H]1CSCN1C(=O)CCCCCCCCCc1ccccc1` [1 (b), (4R)3-(10-phenyldecanoyl) thiazolidin-4-al], `O=C[C@@H]1CSCN1C(=O)CCC(=O)CCCc1ccccc1` [1 (k), (4R)3-(4-oxo-7-phenylheptanoyl) thiazolidin-4-al] is 46-fold lower in IC50: 730 nM for the first, 16 nM for the second. The second is the more potent here.

Going from `CC(C)C(CCCCCc1ccccc1)C(=O)N1CSC[C@H]1C=O` (stereo partly drawn) [1 (c), (4R)3-(2-isopropyl-7-phenylheptanoyl)thiazolidin-7-al] to `CC(C)C(NC(=O)CCCc1ccccc1)C(=O)N1CSC[C@H]1C=O` (stereo partly drawn) [1 (q), (4R)3-[2-(4-phenylbutyrylamino)-3-methylbutyryl]thiazolidin-4-al], the IC50 falls from 87 nM to 5.7 nM (15-fold). The second is the more potent here.

Compared with `O=C[C@@H]1CSCN1C(=O)CCCOCc1ccccc1` [1 (i), (4R)3-(4-benzyloxybutyryl) thiazolidin-4-al], `O=C[C@@H]1CSCN1C(=O)C1CCCCN1C(=O)CCc1ccccc1` (stereo partly drawn) [1 (n), (4R)3-[1-(3-phenylpropionyl)piperidine-2-carbonyl]thiazolidin-4-al] (Hydrocinnamoyl-[ξPip]-[Thz]-aldehyde) is 400-fold lower in IC50: 8100 nM for the first, 20 nM for the second.

Going from `O=C[C@@H]1CSCN1C(=O)C1CCC[C@H]1C(=O)CCc1ccccc1` (stereo partly drawn) [1 (l), (4R)3-[(2R)2-(3-phenylpropionyl)cyclopentanecarbonyl]thiazolidin-4-al] to `O=C[C@@H]1CSCN1C(=O)C1CCCC1C(=O)NCc1ccccc1` (stereo partly drawn) [1 (v), (4R)3-[2-[Nbenzylcarbamoyl)cyclopentanecarbonyl]thiazolidin-4-al], the IC50 rises from 22 nM to 83 nM (3.8-fold). The first is the more potent here.

Going from `O=C[C@@H]1CSCN1C(=O)CCC(=O)N(Cc1ccccc1)c1ccccc1` [1 (s), (4R)3-[3-(Nbenzyl-Nphenylcarbamoyl)propionyl]thiazolidin-4-al] to `COc1ccc(CNC(=O)CCC(=O)N2CSC[C@H]2C=O)cc1` [1 (t), (4R)3-[3-[N(4-methoxybenzyl)carbamoyl]propionyl]thiazolidin-4-al], the IC50 rises from 6.8 nM to 35 nM (5.1-fold). The first is the more potent here.
